Literature values, collected in patent publication US5837685A (priority 1996, dated 1998).

How the values were obtained:
[1] = tested on: Candida
[2] = tested on: patients; details: some impairment of renal function regardless of dosage

In the case of `C[C@@H]1[C@H](O)[C@@H](C)/C=C/C=C/C=C/C=C/C=C/C=C/C=C/[C@H](O[C@@H]2O[C@H](C)[C@@H](O)[C@H](N)[C@@H]2O)C[C@@H]2O[C@](O)(C[C@@H](O)C[C@@H](O)[C@H](O)CC[C@@H](O)C[C@@H](O)CC(=O)O[C@H]1C)C[C@H](O)[C@H]2C(=O)O` [Amphotericin B], the “active in vitro at concentrations of” value [1] is listed as 0.01 to 2 µg/mL and the toxicity [2] is listed as “highly toxic”.
